Consider seven molecules from ChEMBL document CHEMBL1137985, “Synthesis and enzymatic evaluation of xanthine oxidase-activated prodrugs based on inhibitors of thymidine phosphorylase” (Bioorg Med Chem Lett, 2004).

The structures appear in SMILES notation. Structures can show the parent of a compound that is named as a salt.

As usually defined, the IC50 is the concentration at which inhibition is half-maximal. A low value points to higher potency.

The target of test [1] is T1, Thymidine phosphorylase (Escherichia coli K-12, UniProt P07650). Nature of the test: Inhibition of Thymidine phosphorylase from Escherichia coli; no inhibition at 213 uM.
T1 sequence (P07650 whole entry): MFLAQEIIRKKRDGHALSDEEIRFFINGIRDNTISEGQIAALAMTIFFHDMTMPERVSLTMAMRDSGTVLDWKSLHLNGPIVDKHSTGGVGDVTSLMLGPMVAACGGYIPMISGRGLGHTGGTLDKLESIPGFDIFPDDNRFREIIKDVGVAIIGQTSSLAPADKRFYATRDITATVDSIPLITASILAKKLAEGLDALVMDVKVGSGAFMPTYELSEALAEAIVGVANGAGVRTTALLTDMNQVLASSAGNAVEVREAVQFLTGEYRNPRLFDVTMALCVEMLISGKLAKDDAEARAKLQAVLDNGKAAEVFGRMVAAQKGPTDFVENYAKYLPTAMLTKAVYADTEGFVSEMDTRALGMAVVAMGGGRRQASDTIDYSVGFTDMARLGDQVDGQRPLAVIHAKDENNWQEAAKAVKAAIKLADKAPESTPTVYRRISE
Test [2] deals with T1, Thymidine phosphorylase. Kind of test: Inhibition of Thymidine phosphorylase from Escherichia coli; no inhibition at 47.2 uM.
Test [3] addresses T1, Thymidine phosphorylase. Kind of test: Inhibition of Thymidine phosphorylase from Escherichia coli; no inhibition at 137 uM.
Test [4] concerns the target T1, Thymidine phosphorylase. Nature of the test: Inhibition of Thymidine phosphorylase from Escherichia coli; no inhibition at 207 uM.
Test [5] deals with T1, Thymidine phosphorylase. Nature of the test: Inhibition of Thymidine phosphorylase from Escherichia coli; no inhibition at 148 uM.
The target in test [6] is T1, Thymidine phosphorylase.

As for `Nc1ncncc1Br`, the IC50 result against Thymidine phosphorylase [1] is “No inhibition”.
`Cl.N=C1CCCN1Cc1nc[nH]c(=O)c1Cl`: the IC50 entry on Thymidine phosphorylase [2] is “No inhibition”.
With `Nc1[nH]c(=O)ncc1Br`, the IC50 result against Thymidine phosphorylase [3] is listed as “No inhibition”.
In the case of `O=c1[nH]cnc2[nH]ccc12`, on Thymidine phosphorylase [4], the IC50 entry is given as “No inhibition”.
Regarding `O=c1ncc2cc[nH]c2[nH]1`, the IC50 entry against Thymidine phosphorylase [5] was “No inhibition”.
As for `Nc1nc[nH]c(=O)c1Br`, at Thymidine phosphorylase [5], the IC50 result was “No inhibition”.
On to `N=C1CCCN1Cc1[nH]c(=O)[nH]c(=O)c1Cl` [TIPIRACIL HYDROCHLORIDE], for which, on Thymidine phosphorylase [6], the IC50 is […].
